# Experiment: single fatty acids used alone (inventor's research)
# Details: any one fatty acid used alone, compared with the combination
row,Compound,curative effect when used alone
1,CCCCCCCCCCCCCCCCCCCC(=O)O [arachidic acid],relatively unobvious
2,CCCCC/C=C\C/C=C\CCCCCCCC(=O)O [linoleic acid],relatively unobvious
3,CCCCCCCC/C=C\CCCCCCCC(=O)O [oleic acid],relatively unobvious
4,CCCCCCCCCCCCCCCC(=O)O [palmitic acid],relatively unobvious
5,CCCCCC/C=C\CCCCCCCC(=O)O [palmitoleic acid],relatively unobvious
6,CCCCCCCCCCCCCCCCCC(=O)O [stearic acid],relatively unobvious

# — US20190117716A1, “FATTY ACID COMPOSITION AND PHARMACEUTICAL PREPARATION AND APPLICATION THEREOF” (priority 2011, published 2019)
